pIC50: −log10 of the molar value.
How the values were obtained:
[1] = molecular target: T1, recombinant human ACC1 (acetyl-CoA carboxylase 1) (Homo sapiens, UniProt Q13085); assay: Human ACC1 enzyme assay (HTRF ADP detection); format: biochemical; conditions: 50 μM ATP, 20 μM acetyl-CoA, 15 min pre-incubation, 20 min at 22° C.; read-out: ACC 1 IC50;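 further: ADP by-product quantified by competitive HTRF immunoassay with europium cryptate anti-ADP antibody and d2-labelled ADP, read after 1 h binding at 22 °C, enzyme near 2.5 ng/µl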
T1 construct: NM_198834, amino acids 39—end; FLAG (C); made in house; host or cells: baculovirus-transfected insect cells (Hi5)
Description: The basic principle of the assay is the measurement of adenosine diphosphate (ADP), which is formed as a by-product, by means of an HTRF®-based competitive immunoassay (HTRF=Homogeneous Time Resolved Fluorescence).
(§1) The amount of complex of d2-labelled ADP and europium cryptate-labelled anti-ADP antibody was then determined by measuring the resonance energy transfer of europium cryptate to d2.

[2] = molecular target: T2, ACC2 (acetyl-CoA carboxylase 2) (Homo sapiens, UniProt O00763); assay: Human ACC2 enzyme assay (HTRF ADP detection); format: biochemical; conditions: 20 μM acetyl-CoA, 15 min pre-incubation, 20 min at 22° C.; read-out: ACC 2 IC50
T2 construct: catalogue no; 50201, amino acids 39—end, expressed in baculovirus-transfected Sf9 insect cells; His (C); purchased BPS Bioscience (San Diego, Calif.) 50201; host or cells: baculovirus-transfected Sf9 insect cells
T2 sequence (O00763 39-2458 limits assumed): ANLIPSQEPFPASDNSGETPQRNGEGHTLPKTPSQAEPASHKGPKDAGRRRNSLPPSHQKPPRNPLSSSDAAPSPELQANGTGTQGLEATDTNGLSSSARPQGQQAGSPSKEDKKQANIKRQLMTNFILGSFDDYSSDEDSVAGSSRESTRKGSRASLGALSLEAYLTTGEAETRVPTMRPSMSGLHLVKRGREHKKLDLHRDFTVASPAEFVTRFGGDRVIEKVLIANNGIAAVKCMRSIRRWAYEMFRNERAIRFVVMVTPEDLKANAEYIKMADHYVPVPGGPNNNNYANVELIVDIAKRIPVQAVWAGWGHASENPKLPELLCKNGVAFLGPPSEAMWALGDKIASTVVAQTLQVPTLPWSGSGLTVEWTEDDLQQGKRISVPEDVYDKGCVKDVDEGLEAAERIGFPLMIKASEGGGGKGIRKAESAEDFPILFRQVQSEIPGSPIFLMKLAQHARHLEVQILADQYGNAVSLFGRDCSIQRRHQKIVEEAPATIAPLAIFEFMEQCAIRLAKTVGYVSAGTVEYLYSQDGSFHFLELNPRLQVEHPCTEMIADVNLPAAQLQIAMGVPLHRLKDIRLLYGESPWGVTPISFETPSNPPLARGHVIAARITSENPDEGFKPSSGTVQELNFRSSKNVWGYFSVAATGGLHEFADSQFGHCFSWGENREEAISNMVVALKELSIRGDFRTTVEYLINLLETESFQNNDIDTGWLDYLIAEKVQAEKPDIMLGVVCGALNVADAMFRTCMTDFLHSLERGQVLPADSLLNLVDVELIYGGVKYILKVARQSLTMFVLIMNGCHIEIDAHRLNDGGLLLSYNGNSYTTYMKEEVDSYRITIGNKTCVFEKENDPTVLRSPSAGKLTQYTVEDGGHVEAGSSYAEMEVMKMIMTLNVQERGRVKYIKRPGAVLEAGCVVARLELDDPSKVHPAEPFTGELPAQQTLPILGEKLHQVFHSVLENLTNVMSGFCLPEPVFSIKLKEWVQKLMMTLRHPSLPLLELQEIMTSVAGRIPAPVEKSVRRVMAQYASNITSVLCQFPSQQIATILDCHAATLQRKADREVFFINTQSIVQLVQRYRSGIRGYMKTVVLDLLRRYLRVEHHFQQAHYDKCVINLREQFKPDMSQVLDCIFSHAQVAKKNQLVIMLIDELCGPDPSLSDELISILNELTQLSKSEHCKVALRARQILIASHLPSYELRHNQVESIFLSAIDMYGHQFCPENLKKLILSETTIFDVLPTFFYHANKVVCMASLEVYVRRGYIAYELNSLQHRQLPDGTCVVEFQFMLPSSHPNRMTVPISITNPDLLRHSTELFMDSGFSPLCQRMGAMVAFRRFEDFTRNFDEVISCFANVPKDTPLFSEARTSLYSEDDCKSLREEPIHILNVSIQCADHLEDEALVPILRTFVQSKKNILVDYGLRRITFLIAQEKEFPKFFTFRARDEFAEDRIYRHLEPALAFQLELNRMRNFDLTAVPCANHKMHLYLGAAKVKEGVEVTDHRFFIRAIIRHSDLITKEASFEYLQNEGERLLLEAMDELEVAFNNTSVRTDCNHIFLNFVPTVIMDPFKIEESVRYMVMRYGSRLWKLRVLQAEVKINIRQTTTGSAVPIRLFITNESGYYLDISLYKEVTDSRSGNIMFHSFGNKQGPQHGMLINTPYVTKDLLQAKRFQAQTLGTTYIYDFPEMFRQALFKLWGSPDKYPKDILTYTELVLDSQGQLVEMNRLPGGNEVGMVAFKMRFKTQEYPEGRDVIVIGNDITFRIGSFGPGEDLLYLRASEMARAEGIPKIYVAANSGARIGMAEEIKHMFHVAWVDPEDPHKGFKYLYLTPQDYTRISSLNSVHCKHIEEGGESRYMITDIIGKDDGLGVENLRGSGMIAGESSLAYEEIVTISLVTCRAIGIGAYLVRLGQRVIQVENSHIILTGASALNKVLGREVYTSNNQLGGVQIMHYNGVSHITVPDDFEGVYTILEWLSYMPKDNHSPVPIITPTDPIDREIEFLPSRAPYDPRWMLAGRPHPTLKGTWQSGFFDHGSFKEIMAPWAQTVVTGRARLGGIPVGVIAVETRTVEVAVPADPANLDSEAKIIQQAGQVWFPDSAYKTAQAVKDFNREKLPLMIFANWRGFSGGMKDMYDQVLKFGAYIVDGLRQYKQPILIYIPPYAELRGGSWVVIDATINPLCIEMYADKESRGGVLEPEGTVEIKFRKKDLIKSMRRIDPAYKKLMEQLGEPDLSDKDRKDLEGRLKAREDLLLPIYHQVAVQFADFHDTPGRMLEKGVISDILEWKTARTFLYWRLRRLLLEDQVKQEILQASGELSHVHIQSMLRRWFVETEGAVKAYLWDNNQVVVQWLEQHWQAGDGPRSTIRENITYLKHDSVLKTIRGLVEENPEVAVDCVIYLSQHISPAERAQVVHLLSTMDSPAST
Description: The inhibitory activity of the substances of this invention with regard to acetyl-CoA carboxylase 2 (ACC2) was measured using the ACC2 assay described in the paragraphs below. The basic principle of the assay is the measurement of adenosine diphosphate (ADP), which is formed as a by-product, by means of an HTRF®-based competitive immunoassay (HTRF=Homogeneous Time Resolved Fluorescence).
as §1

Structure (SMILES) | pIC50 [1] | pIC50 [2]
O=C1N[C@]2(CC[C@@H](OCC(F)(F)F)CC2)C(O)=C1c1cc(-c2ccc(Cl)cc2)ccc1Cl [Example 1-29, (5s,8s)-3-(4,4′-dichlorobiphenyl-3-yl)-4-hydroxy-8-(2,2,2-trifluoroethoxy)-1-azaspiro[4.5]dec-3-en-2-one] | 6.57 | 5.72
Cc1ccc(-c2ccc(Cl)cc2)cc1C1=C(O)C2(CCC3(CC2)OCC(C)O3)NC1=O (stereo not shown) [Example 1-63, 11-(4′-chloro-4-methylbiphenyl-3-yl)-12-hydroxy-2-methyl-1,4-dioxa-9-azadispiro[4.2.4.2]tetradec-11-en-10-one] | 6.41 | 5.38
Cc1ccc(-c2ccc(Cl)cc2)cc1-c1c(O)c2ccc(F)cc2[nH]c1=O [Example 9-8, 3-(4′-chloro-4-methylbiphenyl-3-yl)-7-fluoro-4-hydroxyquinolin-2(1H)-one] | 6.38 | < 4.70
Cc1ccc(-c2ccc(Cl)cc2)cc1C1=C(O)C2(Cc3ccccc3C2)NC1=O [Example 1-25, 4′-(4′-chloro-4-methylbiphenyl-3-yl)-3′-hydroxy-1,3-dihydrospiro[indene-2,2′-pyrrol]-5′(1′H)-one] | 6.31 | 5.47
Cc1ccc(-c2ccc(C(F)(F)F)cc2)cc1-c1c(O)c2ccc(F)cc2[nH]c1=O [Example 9-10, 7-fluoro-4-hydroxy-3-[4-methyl-4′-(trifluoromethyl)biphenyl-3-yl]quinolin-2(1H)-one] | 5.77 | < 4.70
Cc1ccc(-c2ccc(C(F)(F)F)cc2)cc1-c1c(O)c2ccc(Cl)cc2[nH]c1=O [Example 9-6, 7-chloro-4-hydroxy-3-[4-methyl-4′-(trifluoromethyl)biphenyl-3-yl]quinolin-2(1H)-one] | 5.96 | 4.72
COCC1CCC2(CC1)NC(=O)C(c1c(C)ccc(-c3ccc(Cl)cc3)c1C)=C2O (stereo not shown) [Example 1-53, 3-(4′-chloro-2,4-dimethylbiphenyl-3-yl)-4-hydroxy-8-(methoxymethyl)-1-azaspiro[4.5]dec-3-en-2-one] | 6.30 | 6.67
COCCC1CCC2(CC1)NC(=O)C(c1c(C)ccc(-c3ccc(Cl)cc3)c1C)=C2O (stereo not shown) [Example 1-57, 3-(4′-chloro-2,4-dimethylbiphenyl-3-yl)-4-hydroxy-8-(2-methoxyethyl)-1-azaspiro[4.5]dec-3-en-2-one] | 6.10 | 6.66
Cc1ccc(-c2ccc(Cl)cc2)cc1C1=C(O)C2(CCOCC2)OC1=O [Example 2-37, 3-(4′-chloro-4-methylbiphenyl-3-yl)-4-hydroxy-1,8-dioxaspiro[4.5]dec-3-en-2-one] | 6.47 | < 4.70
Cc1ccc(-c2ccc(Cl)c(C3=C(O)C4(CCOCC4)NC3=O)c2)cc1F [Example 1-39, 3-(4-chloro-3′-fluoro-4′-methylbiphenyl-3-yl)-4-hydroxy-8-oxa-1-azaspiro[4.5]dec-3-en-2-one] | 6.18 | < 4.70
COCC1CCC2(CC1)OC(=O)C(c1cc(-c3ccc(Cl)cc3)ccc1C)=C2O (stereo not shown) [Example 2-20, 3-(4′-chloro-4-methylbiphenyl-3-yl)-4-hydroxy-8-(methoxymethyl)-1-oxaspiro[4.5]dec-3-en-2-one] | 6.86 | 5.71
Cc1ccc(-c2ccc(F)c(F)c2)cc1C1=C(O)C2(CCCC2)OC1=O [Example 2-22, 3-(3′,4′-difluoro-4-methylbiphenyl-3-yl)-4-hydroxy-1-oxaspiro[4.4]non-3-en-2-one] | 6.08 | < 4.70
Cc1ccc(-c2ccc(F)cc2)c(C)c1C1C(=O)N2CCCCN2C1=O [Example 8-1, 2-(4′-fluoro-2,4-dimethylbiphenyl-3-yl)tetrahydro-1H-pyrazolo[1,2-a]pyridazine-1,3(2H)-dione] | 5.61 | < 4.70
Cc1ccc(-c2ccc(Cl)cc2)c(C)c1C1C(=O)N2CCOCCN2C1=O [Example 8-8, 8-(4′-chloro-2,4-dimethylbiphenyl-3-yl)tetrahydro-7H-pyrazolo[1,2-d][1,4,5]oxadiazepine-7,9(8H)-dione] | 6.03 | 4.77
Cc1ccc(-c2ccc(Cl)cc2)cc1C1=C(O)C2(CC2)OC1=O [Example 2-8, 6-(4′-chloro-4-methylbiphenyl-3-yl)-7-hydroxy-4-oxaspiro[2.4]hept-6-en-5-one] | 6.38 | < 4.70
COCCO[C@@H]1CCC[C@]2(C1)NC(=O)C(c1cc(-c3ccc(Cl)cc3)ccc1Cl)=C2O (relative stereo) [Example 1-74, rel-(5R,7R)-3-(4,4′-dichlorobiphenyl-3-yl)-4-hydroxy-7-(2-methoxyethoxy)-1-azaspiro[4.5]dec-3-en-2-one] | 6.18 | 4.78
Cc1cc(C)c(-c2ccc(Cl)cc2)c(C)c1C1=C(O)C(C)(C)OC1=O [Example 2-5, 3-(4′-chloro-2,4,6-trimethylbiphenyl-3-yl)-4-hydroxy-5,5-dimethylfuran-2(5H)-one] | 5.83 | 5.24
